Legend:
Assay type in all cases: biochemical
Human JAK1 = biological target: T1, Human JAK1 (Homo sapiens, UniProt P23458); assay: In-vitro kinase inhibition test, JAK1; settings: for inhibition at 1 µM: compound at 1 uM, read-out: JAK1 kinase-phosphorylation inhibitory level (% inhibition); for JAK1/JAK2: ratio of % inhibition of JAK1 to JAK2 at 1 uM
T1 construct: purchased Millipore, Germany

Human JAK2 = biological target: T2, Human JAK2 (Homo sapiens, UniProt O60674); assay: In-vitro kinase inhibition test, JAK2; settings: compound at 1 uM; read-out: JAK2 kinase-phosphorylation inhibitory level (% inhibition)
T2 construct: purchased Millipore, Germany
Experimental: (§1) Human-derived JAK1, JAK2, JAK3 and TYK2 (Millipore, Germany) were used as kinases. Each kinase was diluted with an appropriate buffer as described below, and then mixed with reaction reagents.
(§2) 3-morpholinopropane-1-sulfonic acid (MOPS) and EDTA were dissolved in deionized water at a concentration of 20 mM and 1 mM, respectively, and then 100 μL of β-mercaptoethanol, 10 μL of Brij-35™, 5 mL of glycerol, and 100 mg of bovine serum albumin (BSA), each per 100 mL of the solution, were added to the solution, thereby preparing a dilution buffer for JAK2, JAK3, and TYK2.
(§3) Each compound was dissolved in a 100%-DMSO solution at a concentration of about 50 μM. This prepared solution was reacted with reaction reagents in each well of a 96-well plate until a final concentration of the compound reached 1 μM. A detailed experimental method for each kinase is as follows.
(§4) After reaction for about 40 minutes at room temperature, the reaction was stopped by adding 5 uL of a 3% (v/v) phosphoric acid solution.
(§5) The inhibitory levels (% inhibition) represent a percentage of reduction in phosphorylation activity in each test group with respect to the phosphorylation activity of a corresponding kinase in a negative control group lacking any of the compounds synthesized in the examples. % inhibition=[(Scintillation value of Test compound non-treatment group−Scintillation value of Test compound treatment group)/(Scintillation value of Test compound non-treatment group)]×100

Human JAK3 = biological target: T3, Human JAK3 (Homo sapiens, UniProt P52333); assay: In-vitro kinase inhibition test, JAK3; settings: compound at 1 uM; read-out: JAK3 kinase-phosphorylation inhibitory level (% inhibition)
T3 construct: purchased Millipore, Germany
T3 sequence (P52333 1-1124): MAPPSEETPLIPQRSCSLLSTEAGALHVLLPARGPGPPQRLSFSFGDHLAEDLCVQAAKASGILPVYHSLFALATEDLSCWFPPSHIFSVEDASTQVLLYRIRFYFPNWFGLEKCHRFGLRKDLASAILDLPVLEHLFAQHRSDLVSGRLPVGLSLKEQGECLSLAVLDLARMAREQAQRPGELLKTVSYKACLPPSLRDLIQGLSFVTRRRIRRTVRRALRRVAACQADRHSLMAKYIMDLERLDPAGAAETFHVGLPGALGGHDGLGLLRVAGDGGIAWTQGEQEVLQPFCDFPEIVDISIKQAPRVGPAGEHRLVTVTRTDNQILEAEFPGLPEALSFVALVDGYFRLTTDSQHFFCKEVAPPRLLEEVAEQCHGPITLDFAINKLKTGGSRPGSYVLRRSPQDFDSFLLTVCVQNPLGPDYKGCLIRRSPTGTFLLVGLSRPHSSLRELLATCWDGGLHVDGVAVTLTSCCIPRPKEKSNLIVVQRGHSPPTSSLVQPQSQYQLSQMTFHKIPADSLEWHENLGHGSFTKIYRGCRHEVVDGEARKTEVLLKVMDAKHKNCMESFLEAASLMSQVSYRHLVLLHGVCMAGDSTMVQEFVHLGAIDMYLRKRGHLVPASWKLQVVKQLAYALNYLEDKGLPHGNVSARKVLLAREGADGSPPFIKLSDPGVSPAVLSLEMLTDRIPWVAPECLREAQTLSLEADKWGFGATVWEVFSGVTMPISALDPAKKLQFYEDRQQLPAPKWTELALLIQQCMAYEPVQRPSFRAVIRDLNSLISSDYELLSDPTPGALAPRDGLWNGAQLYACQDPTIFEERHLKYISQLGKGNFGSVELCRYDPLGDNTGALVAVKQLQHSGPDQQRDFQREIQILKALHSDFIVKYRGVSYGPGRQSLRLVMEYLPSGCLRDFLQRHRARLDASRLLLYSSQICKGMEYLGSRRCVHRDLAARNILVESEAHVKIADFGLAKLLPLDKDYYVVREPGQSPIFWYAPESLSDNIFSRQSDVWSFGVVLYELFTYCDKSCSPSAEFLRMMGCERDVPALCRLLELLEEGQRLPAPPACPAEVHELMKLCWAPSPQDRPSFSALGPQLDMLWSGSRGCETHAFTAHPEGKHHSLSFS

Human TYK2 = biological target: T4, Human TYK2 (Homo sapiens, UniProt P29597); assay: In-vitro kinase inhibition test, TYK2; settings: compound at 1 uM; read-out: TYK2 kinase-phosphorylation inhibitory level (% inhibition)
T4 construct: purchased Millipore, Germany
T4 sequence (P29597 whole entry): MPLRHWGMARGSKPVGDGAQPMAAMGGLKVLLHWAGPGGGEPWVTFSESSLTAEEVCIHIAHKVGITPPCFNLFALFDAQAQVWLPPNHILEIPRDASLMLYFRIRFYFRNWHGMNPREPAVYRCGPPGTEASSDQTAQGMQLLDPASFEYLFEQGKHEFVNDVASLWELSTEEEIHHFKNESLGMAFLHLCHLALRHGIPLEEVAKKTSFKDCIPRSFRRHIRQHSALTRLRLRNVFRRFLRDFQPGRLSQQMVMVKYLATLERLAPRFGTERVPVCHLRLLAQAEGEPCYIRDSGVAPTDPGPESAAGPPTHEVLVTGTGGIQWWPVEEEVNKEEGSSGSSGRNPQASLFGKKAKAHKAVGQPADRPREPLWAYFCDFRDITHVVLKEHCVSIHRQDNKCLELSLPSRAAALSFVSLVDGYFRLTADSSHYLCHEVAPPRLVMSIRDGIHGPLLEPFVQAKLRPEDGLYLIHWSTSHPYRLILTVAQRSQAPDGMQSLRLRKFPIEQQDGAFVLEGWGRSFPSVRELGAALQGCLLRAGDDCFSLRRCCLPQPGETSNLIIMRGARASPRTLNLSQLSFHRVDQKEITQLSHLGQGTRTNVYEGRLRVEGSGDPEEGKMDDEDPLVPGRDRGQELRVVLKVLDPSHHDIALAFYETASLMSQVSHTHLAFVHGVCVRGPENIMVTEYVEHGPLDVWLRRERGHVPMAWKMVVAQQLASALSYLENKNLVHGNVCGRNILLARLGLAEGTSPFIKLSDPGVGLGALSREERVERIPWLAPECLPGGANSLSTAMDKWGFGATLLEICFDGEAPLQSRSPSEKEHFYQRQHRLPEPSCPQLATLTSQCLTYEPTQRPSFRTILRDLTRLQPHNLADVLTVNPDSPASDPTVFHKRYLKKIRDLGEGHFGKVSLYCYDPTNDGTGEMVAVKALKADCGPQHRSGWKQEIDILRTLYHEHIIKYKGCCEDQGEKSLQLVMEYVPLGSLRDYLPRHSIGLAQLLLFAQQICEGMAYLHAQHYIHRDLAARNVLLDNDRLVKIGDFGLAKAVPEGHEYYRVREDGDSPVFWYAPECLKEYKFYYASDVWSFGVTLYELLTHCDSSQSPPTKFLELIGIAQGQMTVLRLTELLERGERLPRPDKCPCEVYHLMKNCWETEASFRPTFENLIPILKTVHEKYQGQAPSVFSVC
Experimental: as §1, §2, §3, §4, §5

T1 sequence (P23458 whole entry): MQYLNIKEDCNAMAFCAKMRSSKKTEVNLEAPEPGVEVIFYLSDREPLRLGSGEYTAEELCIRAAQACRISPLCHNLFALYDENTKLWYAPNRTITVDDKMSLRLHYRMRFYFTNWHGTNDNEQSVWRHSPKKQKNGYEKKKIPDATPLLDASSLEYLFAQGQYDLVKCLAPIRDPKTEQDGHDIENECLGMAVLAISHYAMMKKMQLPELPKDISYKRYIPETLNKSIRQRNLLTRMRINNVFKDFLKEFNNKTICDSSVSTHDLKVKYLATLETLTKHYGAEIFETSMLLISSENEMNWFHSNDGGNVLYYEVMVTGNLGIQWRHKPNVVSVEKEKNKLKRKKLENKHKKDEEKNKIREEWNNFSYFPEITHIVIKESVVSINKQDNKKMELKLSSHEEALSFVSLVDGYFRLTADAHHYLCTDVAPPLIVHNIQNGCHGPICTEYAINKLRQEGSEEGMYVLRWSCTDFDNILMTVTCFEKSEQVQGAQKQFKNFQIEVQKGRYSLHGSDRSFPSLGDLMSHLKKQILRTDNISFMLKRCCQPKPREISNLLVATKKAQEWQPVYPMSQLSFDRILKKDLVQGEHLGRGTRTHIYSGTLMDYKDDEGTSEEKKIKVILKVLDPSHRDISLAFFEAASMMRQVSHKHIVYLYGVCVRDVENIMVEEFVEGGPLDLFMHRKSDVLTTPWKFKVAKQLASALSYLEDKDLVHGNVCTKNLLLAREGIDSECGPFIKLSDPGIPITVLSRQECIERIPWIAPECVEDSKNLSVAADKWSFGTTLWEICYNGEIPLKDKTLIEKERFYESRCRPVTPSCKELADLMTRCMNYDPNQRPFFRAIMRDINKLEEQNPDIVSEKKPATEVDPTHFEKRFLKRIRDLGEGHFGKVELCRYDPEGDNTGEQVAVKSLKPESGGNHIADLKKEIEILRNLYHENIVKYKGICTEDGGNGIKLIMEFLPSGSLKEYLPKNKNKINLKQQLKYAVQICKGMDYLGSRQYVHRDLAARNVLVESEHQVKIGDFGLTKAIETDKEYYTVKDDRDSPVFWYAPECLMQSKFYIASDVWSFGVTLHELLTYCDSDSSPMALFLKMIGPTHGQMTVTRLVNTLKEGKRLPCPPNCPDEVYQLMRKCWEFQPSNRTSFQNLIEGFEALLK
T2 sequence (O60674 whole entry): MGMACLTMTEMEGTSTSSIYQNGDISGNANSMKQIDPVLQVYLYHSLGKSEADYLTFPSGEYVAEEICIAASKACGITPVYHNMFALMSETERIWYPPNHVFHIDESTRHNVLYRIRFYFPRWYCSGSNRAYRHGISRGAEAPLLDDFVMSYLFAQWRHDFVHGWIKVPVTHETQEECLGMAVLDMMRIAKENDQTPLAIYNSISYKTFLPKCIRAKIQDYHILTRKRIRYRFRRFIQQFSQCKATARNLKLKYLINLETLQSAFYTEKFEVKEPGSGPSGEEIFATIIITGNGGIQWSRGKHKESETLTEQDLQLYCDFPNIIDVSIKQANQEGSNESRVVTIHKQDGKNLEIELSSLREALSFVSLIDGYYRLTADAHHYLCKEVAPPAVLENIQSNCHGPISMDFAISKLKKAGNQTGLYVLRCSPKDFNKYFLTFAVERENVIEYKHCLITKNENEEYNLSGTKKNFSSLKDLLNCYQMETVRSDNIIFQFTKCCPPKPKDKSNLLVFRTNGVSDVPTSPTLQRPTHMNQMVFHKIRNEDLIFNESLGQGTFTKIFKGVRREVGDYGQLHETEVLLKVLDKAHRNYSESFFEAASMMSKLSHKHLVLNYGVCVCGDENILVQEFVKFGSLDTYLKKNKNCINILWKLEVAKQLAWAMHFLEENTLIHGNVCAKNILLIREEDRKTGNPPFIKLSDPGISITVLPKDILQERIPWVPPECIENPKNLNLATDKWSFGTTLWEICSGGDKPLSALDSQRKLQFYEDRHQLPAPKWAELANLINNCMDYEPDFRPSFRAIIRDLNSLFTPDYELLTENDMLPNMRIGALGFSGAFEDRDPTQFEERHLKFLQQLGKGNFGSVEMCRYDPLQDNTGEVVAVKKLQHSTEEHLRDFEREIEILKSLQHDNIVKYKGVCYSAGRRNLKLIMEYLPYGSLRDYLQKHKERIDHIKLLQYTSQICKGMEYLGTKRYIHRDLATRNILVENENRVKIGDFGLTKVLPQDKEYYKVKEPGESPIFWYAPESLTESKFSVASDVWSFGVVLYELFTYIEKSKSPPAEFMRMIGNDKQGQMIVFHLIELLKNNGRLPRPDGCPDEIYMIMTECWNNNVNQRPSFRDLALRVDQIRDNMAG

Compound | inhibition at 1 µM (Human JAK1) [%] | inhibition at 1 µM (Human JAK2) [%] | inhibition at 1 µM (Human JAK3) [%] | JAK1/JAK2 (Human JAK1) | inhibition at 1 µM (Human TYK2) [%]
CN(c1ncnc2[nH]ccc12)[C@@H]1CCN(C(=O)CC#N)C1 [Example 1, (R)-3-(3-(methyl(7H-pyrrolo[2,3-d]pyrimidine-4-yl)amino)pyrrolidine-1-yl)-3-oxopropanenitrile] | 97 | 70 | 20 |  | 
CN(c1ncnc2[nH]ccc12)[C@@H]1CCN(CCC#N)C1 [Example 2, (R)-3-(3-(methyl(7H-pyrrolo[2,3-d]pyrimidine-4-yl)amino)pyrrolidine-1-yl)propanenitrile] | 91 | 42 | 39 | 2.17 | 58
CCCCN1CC[C@@H](N(C)c2ncnc3[nH]ccc23)C1 [Example 3, (R)—N-(1-butylpyrrolidine-3-yl)-N-methyl-7H-pyrrolo[2,3-d]pyrimidine-4-amine] | 52 | 6 | 4 | ∞ | 8
CN(c1ncnc2[nH]ccc12)[C@@H]1CCN(C(=O)CN=[N+]=[N-])C1 [Example 4, (R)-2-azido-1-(3-(methyl(7H-pyrrolo[2,3-d]pyrimidine-4-yl)amino)pyrrolidine-1-yl)ethane-1-one] | 98 | 79 | 33 | 1.24 | 86
CC(C)CC(=O)N1CC[C@@H](N(C)c2ncnc3[nH]ccc23)C1 [Example 5, (R)-3-methyl-1-(3-(methyl(7H-pyrrolo[2,3-d]pyrimidine-4-yl)amino)pyrrolidine-1-yl)butane-1-one] | 93 | 13 | 10 | 7.15 | 63
CC(C)COC(=O)N1CC[C@@H](N(C)c2ncnc3[nH]ccc23)C1 [Example 6, Isobutyl (R)-3-(methyl(7H-pyrrolo[2,3-d]pyrimidine-4-yl)amino)pyrrolidine-1-carboxylate] | 93 | 9 | 9 | 10.33 | 34
CN(c1ncnc2[nH]ccc12)[C@@H]1CCN(C(=O)Nc2ccccc2)C1 [Example 7, (R)-3-(methyl(7H-pyrrolo[2,3-d]pyrimidine-4-yl)amino)-N-phenylpyrrolidine-1-carboxamide] | 97 | 68 | 42 | 1.43 | 72
CN(c1ncnc2[nH]ccc12)[C@@H]1CCN(S(C)(=O)=O)C1 [Example 8, (R)—N-methyl-N-(1-(methylsulfonyl)pyrrolidine-3-yl)-7H-pyrrolo[2,3-d]pyrimidine-4-amine] | 91 | 7 | 21 | 13.00 | 59
CN(c1ncnc2[nH]ccc12)[C@@H]1CCN(S(=O)(=O)C(F)(F)F)C1 [Example 9, (R)—N-methyl-N-(1-((trifluoromethyl)sulfonyl)pyrrolidine-3-yl)-7H-pyrrolo[2,3-d]pyrimidine-4-amine] | 90 | 9 | 11 | 10.00 | 59
CCS(=O)(=O)N1CC[C@@H](N(C)c2ncnc3[nH]ccc23)C1 [Example 10, (R)—N-(1-(ethylsulfonyl)pyrrolidine-3-yl)-N-methyl-7H-pyrrolo[2,3-d]pyrimidine-4-amine] | 94 | 27 | 22 | 3.48 | 74
CCCS(=O)(=O)N1CC[C@@H](N(C)c2ncnc3[nH]ccc23)C1 [Example 11, (R)—N-methyl-N-(1-(propylsulfonyl)pyrrolidine-3-yl)-7H-pyrrolo[2,3-d]pyrimidine-4-amine] | 95 | 62 | 20 | 1.55 | 78
CC(C)S(=O)(=O)N1CC[C@@H](N(C)c2ncnc3[nH]ccc23)C1 [Example 12, (R)—N-(1-(isopropylsulfonyl)pyrrolidine-3-yl)-N-methyl-7H-pyrrolo[2,3-d]pyrimidine-4-amine] | 86 | 11 | 13 | 7.82 | 47
CN(c1ncnc2[nH]ccc12)[C@@H]1CCN(S(=O)(=O)c2cn(C)cn2)C1 [Example 13, (R)—N-methyl-N-(1-((1-methyl-1H-imidazole-4-yl)sulfonyl)pyrrolidine-3-yl)-7H-pyrrolo[2,3-d]pyrimidine-4-amine] | 52 | 9 | 4 | 5.78 | 17
CN(c1ncnc2[nH]ccc12)[C@@H]1CCN(S(=O)(=O)c2ccccc2)C1 [Example 14, (R)—N-methyl-N-(1-(phenylsulfonyl)pyrrolidine-3-yl)-7H-pyrrolo[2,3-d]pyrimidine-4-amine] | 99 | 69 | 17 | 1.43 | 91
CN(c1ncnc2[nH]ccc12)[C@@H]1CCN(S(=O)(=O)c2ccccc2F)C1 [Example 15, (R)—N-(1-((2-fluorophenyl)sulfonyl)pyrrolidine-3-yl)-N-methyl-7H-pyrrolo[2,3-d]pyrimidine-4-amine] | 98 | 66 | 25 | 1.48 | 92
CN(c1ncnc2[nH]ccc12)[C@@H]1CCN(S(=O)(=O)c2cccc(F)c2)C1 [Example 16, (R)—N-(1-((3-fluorophenyl)sulfonyl)pyrrolidine-3-yl)-N-methyl-7H-pyrrolo[2,3-d]pyrimidine-4-amine] | 98 | 93 | 47 | 1.05 | 98
CN(c1ncnc2[nH]ccc12)[C@@H]1CCN(S(=O)(=O)c2ccc(F)cc2)C1 [Example 17, (R)—N-(1-((4-fluorophenyl)sulfonyl)pyrrolidine-3-yl)-N-methyl-7H-pyrrolo[2,3-d]pyrimidine-4-amine] | 99 | 81 | 29 | 1.22 | 92
CN(c1ncnc2[nH]ccc12)[C@@H]1CCN(S(=O)(=O)c2ccccc2C#N)C1 [Example 18, (R)-2-((3-(methyl(7H-pyrrolo[2,3-d]pyrimidine-4-yl)amino)pyrrolidine-1-yl)sulfonyl)benzonitrile] | 97 | 73 | 22 | 1.33 | 81
CN(c1ncnc2[nH]ccc12)[C@@H]1CCN(S(=O)(=O)c2cccc(C#N)c2)C1 [Example 19, (R)-3-((3-(methyl(7H-pyrrolo[2,3-d]pyrimidine-4-yl)amino)pyrrolidine-1-yl)sulfonyl)benzonitrile] | 99 | 81 | 42 | 1.22 | 95
CN(c1ncnc2[nH]ccc12)[C@@H]1CCN(S(=O)(=O)c2ccc(C#N)cc2)C1 [Example 20, (R)-4-((3-(methyl(7H-pyrrolo[2,3-d]pyrimidine-4-yl)amino)pyrrolidine-1-yl)sulfonyl)benzonitrile] | 97 | 46 | 9 | 2.11 | 84
CN(c1ncnc2[nH]ccc12)[C@H]1CCN(C(=O)CC#N)C1 [Example 31, (S)-3-(3-(methyl(7H-pyrrolo[2,3-d]pyrimidine-4-yl)amino)pyrrolidine-1-yl)-3-oxopropanenitrile] | 23 | -6 | 27 |  | 
